Converted amounts (≈) assume the structure as drawn. The source made the active and inactive calls. The calls are words filed in the database; no cut-off is given here.
Key:
[1] = Selectivity index, ratio of IC50 for african green monkey Vero cells to IC50 for Mycobacterium tuberculosis H37Rv; assay type: toxicity; conditions: read-out: Ratio IC50
[2] = tested on: Mycobacterium tuberculosis; experiment: Antitubercular activity against Mycobacterium tuberculosis H37Rv incubated for 7 days by alamar blue assay; assay type: functional; conditions: 168 h, time 7 day
[3] = Cytotoxicity against african green monkey Vero cells incubated for 48 hrs by CCK8 assay; assay type: toxicity, cell-based, Chlorocebus sabaeus
[4] = Metabolic stability in mouse liver microsomes assessed as intrinsic clearance per mg protein at 2 uM preincubated for 60 mins followed by NADPH addition and measured upto 60 mins by LC-MS analysis; assay type: ADME, Microsome; conditions: time < 120 min, read-out: CLH
[5] = Metabolic stability in mouse liver microsomes assessed as substrate remaining at 2 uM preincubated for 60 mins followed by NADPH addition and measured upto 60 mins by LC-MS analysis; assay type: ADME, Microsome; conditions: time < 120 min, read-out: Stability
[6] = Cytotoxicity against HK-2 cells incubated for 48 hrs by CCK8 assay; assay type: toxicity, cell-based; conditions: human
[7] = Metabolic stability in human liver microsomes assessed as intrinsic clearance per mg protein at 2 uM preincubated for 60 mins followed by NADPH addition and measured upto 60 mins by LC-MS analysis; assay type: ADME, Microsome; conditions: time < 120 min, read-out: CLH
[8] = Metabolic stability in human liver microsomes assessed as substrate remaining at 2 uM preincubated for 60 mins followed by NADPH addition and measured upto 60 mins by LC-MS analysis; assay type: ADME, Microsome; conditions: time < 120 min, read-out: Stability
[9] = Metabolic stability in mouse liver microsomes assessed as half-life at 2 uM preincubated for 60 mins followed by NADPH addition and measured upto 60 mins by LC-MS analysis; assay type: ADME, Microsome; conditions: time < 120 min
[10] = Metabolic stability in human liver microsomes assessed as half-life at 2 uM preincubated for 60 mins followed by NADPH addition and measured upto 60 mins by LC-MS analysis; assay type: ADME, Microsome; conditions: time < 120 min
[11] = tested on: Mycobacterium tuberculosis; experiment: Binding affinity to Mycobacterium tuberculosis AccD5 at 10 uM by SPR analysis

Structure (SMILES)	selectivity ratio [1]	MIC [2] [µg/mL]	IC50 at 48 h [3] [µg/mL]	further results
C=CCSc1nc2c(c(=O)[nH]1)C(c1ccc(OCC)cc1)CC(=O)N2 (stereo unspecified)	> 500	1 (≈ 2.8 µM)	> 100	–
COc1ccc(C2CC(=O)Nc3nc(SC)[nH]c(=O)c32)cc1 (stereo unspecified)	3.32	9.24 (≈ 29.1 µM)	30.7 (≈ 96.6 µM)	–
NNC(=O)c1ccncc1 [ISONIAZID]	> 2000	0.05 (≈ 0.365 µM)	> 100	–
CCCS(=O)(=O)c1nc2c(c(=O)[nH]1)[C@@H](c1ccc(OC)cc1)CC(=O)N2	–	> 32	–	–
CCCSc1nc2c(c(=O)[nH]1)C(c1ccc(OC)cc1[N+](=O)[O-])CC(=O)N2 (racemic)	> 833	0.12 (≈ 0.307 µM)	> 100	microsomal CLint at 2 µM [4]: 14.2 µL/min/mg; remaining at 1 h, 2 µM [5]: 66.8%; IC50 at 48 h [6]: > 100 µg/mL; microsomal CLint at 2 µM [7]: 11.2 µL/min/mg; remaining at 1 h, 2 µM [8]: 73.7%; half-life at 2 µM [9]: 97.3 min; half-life at 2 µM [10]: 124 min
COc1ccc(C2CC(=O)Nc3nc(SC)[nH]c(=O)c32)cc1O (stereo unspecified)	–	> 10	> 100	–
CCC[S+]([O-])c1nc2c(c(=O)[nH]1)[C@H](c1ccc(OC)cc1[N+](=O)[O-])CC(=O)N2 (stereo partly specified)	–	> 32	–	–
C=CCSc1nc2c(c(=O)[nH]1)C(c1ccc(OC)cc1)CC(=O)N2 (stereo unspecified)	82.2	0.5 (≈ 1.46 µM)	41.1 (≈ 120 µM)	–
CCCSc1nc2c(c(=O)[nH]1)[C@H](c1ccc(OC)cc1)CC(=O)N2	–	7.83 (≈ 22.7 µM)	> 64	IC50 at 48 h [6]: 73.1 µg/mL (≈ 212 µM)
CCCSc1nc2c(c(=O)[nH]1)C(c1ccc(OC)c(O)c1)CC(=O)N2 (stereo unspecified)	> 82.1	1.22 (≈ 3.38 µM)	> 100	–
CCCOc1ccc(C2CC(=O)Nc3nc(SC)[nH]c(=O)c32)cc1 (stereo unspecified)	< 5.4	> 10	53.5 (≈ 155 µM)	–
CCCCSc1nc2c(c(=O)[nH]1)C(c1ccc(OCCC)cc1)CC(=O)N2 (stereo unspecified)	–	> 10	57 (≈ 147 µM)	–
CCCSc1nc2c(c(=O)[nH]1)C(c1ccccc1)CC(=O)N2C (stereo unspecified)	< 5.2	> 10	52.5 (≈ 159 µM)	–
CCCSc1nc2c(c(=O)[nH]1)C(c1ccc(OC(C)C)cc1)CC(=O)N2 (stereo unspecified)	11.7	2.12 (≈ 5.68 µM)	24.9 (≈ 66.7 µM)	–
CCCSc1nc2c(c(=O)[nH]1)C(c1ccc(OC)c(N)c1)CC(=O)N2 (stereo unspecified)	> 50	2 (≈ 5.55 µM)	> 100	–
CCCCSc1nc2c(c(=O)[nH]1)C(c1ccc(OC)c(O)c1)CC(=O)N2 (stereo unspecified)	12.6	3.19 (≈ 8.5 µM)	40.1 (≈ 107 µM)	–
CCCSc1nc2c(c(=O)[nH]1)C(c1ccc(OC)c([N+](=O)[O-])c1)CC(=O)N2 (stereo unspecified)	14	4.84 (≈ 12.4 µM)	67.5 (≈ 173 µM)	–
CCCSc1nc2c(c(=O)[nH]1)C(c1ccccc1)CC(=O)N2 (stereo unspecified)	3.3	9.66 (≈ 30.6 µM)	31.9 (≈ 101 µM)	–
CCCSc1nc2c(c(=O)[nH]1)C(c1ccc(OCC(C)C)cc1)CC(=O)N2 (stereo unspecified)	–	> 10	41.5 (≈ 107 µM)	–
C=CCSc1nc2c(c(=O)[nH]1)C(c1ccc(OC)cc1O)CC(=O)N2 (stereo unspecified)	> 101	0.99 (≈ 2.75 µM)	> 100	–
CCCCSc1nc2c(c(=O)[nH]1)C(c1ccc(OC)cc1O)CC(=O)N2 (stereo unspecified)	8.87	4.65 (≈ 12.4 µM)	41.2 (≈ 110 µM)	–
CCCOc1ccc(C2CC(=O)Nc3nc(SCCC)[nH]c(=O)c32)c(O)c1 (stereo unspecified)	35.6	1.23 (≈ 3.16 µM)	43.9 (≈ 113 µM)	–
CCCCSc1nc2c(c(=O)[nH]1)C(c1ccc(OC)cc1)CC(=O)N2 (stereo unspecified)	93.1	0.5 (≈ 1.39 µM)	46.3 (≈ 129 µM)	–
CCCOc1ccc(C2CC(=O)Nc3nc(SCCC)[nH]c(=O)c32)cc1O (stereo unspecified)	21	4.73 (≈ 12.1 µM)	99.3 (≈ 255 µM)	–

Structure (SMILES)	selectivity ratio [1]	MIC [2] [µg/mL]	IC50 at 48 h [3] [µg/mL]	further results
CCCSc1nc2c(c(=O)[nH]1)C(c1ccc(OC)cc1O)CC(=O)N2 (stereo unspecified)	56.9	0.95 (≈ 2.63 µM)	54.1 (≈ 150 µM)	–
C=CCSc1nc2c(c(=O)[nH]1)C(c1ccc(OC)cc1[N+](=O)[O-])CC(=O)N2 (stereo unspecified)	> 200	0.5 (≈ 1.29 µM)	> 100	–
COc1ccc(C2CC(=O)Nc3nc(SC(C)C)[nH]c(=O)c32)cc1 (stereo unspecified)	> 44.1	2.27 (≈ 6.57 µM)	> 100	–
CCCCCCCOc1ccc(C2CC(=O)Nc3nc(SCCC)[nH]c(=O)c32)cc1 (stereo unspecified)	–	> 10	36.6 (≈ 85.1 µM)	–
CCCS(=O)(=O)c1nc2c(c(=O)[nH]1)[C@H](c1ccc(OC)cc1)CC(=O)N2	–	> 32	–	–
CCC[S+]([O-])c1nc2c(c(=O)[nH]1)[C@@H](c1ccc(OC)cc1[N+](=O)[O-])CC(=O)N2 (stereo partly specified)	–	> 32	–	–
CCCSc1nc2c(c(=O)[nH]1)C(c1ccc(OCC)cc1)CC(=O)N2 (stereo unspecified)	174	0.35 (≈ 0.974 µM)	60.1 (≈ 167 µM)	–
CCCSc1nc2c(c(=O)[nH]1)[C@H](c1ccc(OC)cc1[N+](=O)[O-])CC(=O)N2	–	7.72 (≈ 19.8 µM)	> 64	IC50 at 48 h [6]: 56.2 µg/mL (≈ 144 µM); Activity [11]: inactive
CCCSc1nc2c(c(=O)n1C)C(c1ccccc1)CC(=O)N2C (stereo unspecified)	–	> 10	–	–
CCCSc1nc2c(c(=O)[nH]1)C(c1ccc(OC)cc1N)CC(=O)N2 (stereo unspecified)	–	> 10	> 100	–
CCC[S+]([O-])c1nc2c(c(=O)[nH]1)[C@H](c1ccc(OC)cc1)CC(=O)N2 (stereo partly specified)	–	> 32	–	–
CCCSc1nc2c(c(=O)[nH]1)C(c1cc(OC)c(OC)c(OC)c1)CC(=O)N2 (stereo unspecified)	–	> 10	> 100	–
CCCS(=O)(=O)c1nc2c(c(=O)[nH]1)[C@H](c1ccc(OC)cc1[N+](=O)[O-])CC(=O)N2	–	> 32	–	–
CCCSc1nc2c(c(=O)[nH]1)C(c1ccc(OC)c(OC)c1)CC(=O)N2 (stereo unspecified)	< 2	> 10	20.4 (≈ 54.5 µM)	–
CCC[S+]([O-])c1nc2c(c(=O)[nH]1)[C@@H](c1ccc(OC)cc1)CC(=O)N2 (stereo partly specified)	–	> 32	–	–
CCCSc1nc2c(c(=O)[nH]1)C(c1ccc(OC)cc1)CC(=O)N2 (racemic)	93	0.16 (≈ 0.463 µM)	14.5 (≈ 42 µM)	microsomal CLint at 2 µM [4]: 2.48 µL/min/mg; remaining at 1 h, 2 µM [5]: 87.6%; IC50 at 48 h [6]: 24.8 µg/mL (≈ 71.7 µM); microsomal CLint at 2 µM [7]: 5.85 µL/min/mg; remaining at 1 h, 2 µM [8]: 83.4%; half-life at 2 µM [9]: 560 min; half-life at 2 µM [10]: 237 min
C=CCSc1nc2c(c(=O)[nH]1)C(c1ccc(OCCC)cc1)CC(=O)N2 (stereo unspecified)	2.31	1.98 (≈ 5.33 µM)	4.57 (≈ 12.3 µM)	–
CCCOc1ccc(C2CC(=O)Nc3nc(SCCC)[nH]c(=O)c32)cc1 (stereo unspecified)	12.1	1 (≈ 2.68 µM)	12.1 (≈ 32.3 µM)	–
CCCSc1nc2c(c(=O)[nH]1)C(c1ccc(OC)c(O)c1O)CC(=O)N2 (stereo unspecified)	–	> 10	27.5 (≈ 72.9 µM)	–
COc1ccc(C2CC(=O)Nc3nc(SC)[nH]c(=O)c32)c(O)c1 (stereo unspecified)	–	> 10	> 100	–
CCCS(=O)(=O)c1nc2c(c(=O)[nH]1)[C@@H](c1ccc(OC)cc1[N+](=O)[O-])CC(=O)N2	–	> 32	–	–
CCCSc1nc2c(c(=O)[nH]1)C(c1ccc(OC)cc1)CC(=O)N2C (stereo unspecified)	–	> 10	53.6 (≈ 149 µM)	–
C=CCSc1nc2c(c(=O)[nH]1)C(c1ccc(OC)c(O)c1)CC(=O)N2 (stereo unspecified)	> 45.7	2.19 (≈ 6.09 µM)	> 100	–
CCCSc1nc2c(c(=O)n1C)C(c1ccc(OC)cc1)CC(=O)N2C (stereo unspecified)	–	> 10	46.5 (≈ 124 µM)	–
